The text below walks through data of US20260315521A1, “THERAPEUTIC FORMULATIONS FOR KIDNEY DISEASE COMPRISING REPAGERMANIUM OR PROPAGERMANIUM AND/OR AT1R BLOCKERS” (DIMERIX BIOSCIENCE PTY LTD, priority 2023, published 2026).

Series [1] deals with T1, co-stimulated CCR2-AT1R complexes (Homo sapiens, UniProt P30556).
T1 construct: HA (haemagglutinin); expressed in transfected cells; host or cells: HEK293FT
Description: Gαi protein dissociation assay (ligand-induced BRET) in HEK293FT cells co-stimulated with AngII and MCP-1/CCL2. It is filed as cell-based. An excerpt: To establish if ARBs maintain their potency for inhibition of Gαi protein activation the potencies of ARBs at AT1R only were correlated with the potency of ARBs at co-stimulated CCR2-AT1R complexes obtained from a Gαi protein dissociation assay (FIG. 2).
HEK293FT cells were transiently transfected by the plasmids coding for Gαi1-Nluc and CCR2-YFP haemagglutinin (HA)-tagged AT1R.
GraphPad Prism (v9.3.1) was then used plot ligand-induced BRET verses ARB concentration and potency (pIC50-values) were obtained by fitting a sigmoidal concentration response curve using non-linear regression function of GraphPad Prism (v9.3.1).
To calculate the potency of sparsentan HEK293FT cells were transiently transfected by the plasmids coding for Gαi1-Rluc8, CCR2-YFP and haemagglutinin (HA)-tagged AT1R. 48 h post-transfection, cells were incubated with substrate for 2 hours before cells were pre-incubated with sparsentan (1 μM) and filtered light emissions were sequentially measured for 1 s in each of the ‘donor wavelength window’ (410-490 nm) and ‘acceptor wavelength window’ (520-620 nm) for 30 minutes.
The potency of ARBs at co-stimulated CCR2-AT1R complexes was then compared to the potency of ARBs at AT1R using the linear regression function of GraphPad Prism (v9.3.1).
In general terms: BRET reads energy transfer from a luciferase to a nearby fluorophore.

Series [2] has as its target T2, AT1R (Homo sapiens, UniProt P30556).
T2 sequence (P30556 1-359): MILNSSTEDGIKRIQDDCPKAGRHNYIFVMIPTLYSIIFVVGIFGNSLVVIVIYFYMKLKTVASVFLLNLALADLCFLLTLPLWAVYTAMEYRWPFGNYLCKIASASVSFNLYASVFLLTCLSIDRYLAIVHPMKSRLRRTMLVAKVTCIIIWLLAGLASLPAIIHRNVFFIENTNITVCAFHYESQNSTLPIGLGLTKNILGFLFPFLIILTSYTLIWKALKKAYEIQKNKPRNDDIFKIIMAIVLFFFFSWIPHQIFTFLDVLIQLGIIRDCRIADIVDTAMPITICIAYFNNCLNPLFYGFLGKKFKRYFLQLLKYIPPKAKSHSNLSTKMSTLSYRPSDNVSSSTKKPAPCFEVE
The conditions noted are these: pIC50 or pKb from IUPHAR and/or Michel et al (2013), fimasartan from Choung et al 2018; cited from earlier work.

Series [3] deals with T2, AT1R. The series is described as follows: ARB potency or affinity at AT1R only (public sources: IUPHAR guide to pharmacology, Michel et al 2013, Choung et al 2018). In kind it is binding. The following applies: reference value.
Series [4] deals with angiotensin II-induced cellular responses. The following applies: compared with losartan; cited from earlier work.
Series [5] has as its system chemotactic migration of monocytes by MCP-1. The following applies: cited from earlier work.
A short description of series [6]: Effect of different doses of repagermanium on efficacy of treatment (FIG. 1). In kind it is in vivo.
Series [7] in a line: Population pharmacokinetic analysis of repagermanium (studies DMX-200-101, -202, -203; LC-MS/MS plasma levels). The conditions noted are these: for AUC(0-t) at 24 h: 240 mg/day, read-out: AUC24h, steady state, median; for AUC(0-t) at 24 h / AUC24h, steady state, range: 240 mg total daily dose; for CL/F: po, read-out: Clearance, median (converted). It is filed as in vivo, human. As for the experimental part: In all studies blood samples were analyzed using liquid chromatography tandem mass spectrometry (LC-MS/MS). This method involves the addition of deuterated-PPG (d2-PPG) as an internal standard (IS) and liquid-liquid extraction with chloroform for sample processing. The sample is analyzed on an LC-MS/MS system consisting of a Shimadzu LC20AD with Thermo Fisher Hypercarb column using gradient elution and an API 4000 mass spectrometer. The mass spectrometer is operated in the negative electrospray ionization (ESI) ion mode, and used to monitor the precursor to product ion transitions for PPG and d2-PPG, respectively. The lower limit of quantification (LLOQ) was 5 ng/ml.
The pharmacometric analysis was carried out in several steps driven by the suitability of the clinical data for development of the PK model. 1. An initial structural population PK model was developed using data from healthy volunteers (study 101). 2. This model was subsequently updated using the sparse data in patients from studies 202 and 203, and effects of covariates were explored. 3. Model qualification was performed. 4. Finally, the developed model was used for simulations of the influence of covariates on key PK parameters as well as on potential exposures.
The SAS software (version 9.4) was used for preparing the analysis dataset. The population PK analysis was performed using NONMEM (version 7.5.0) and the first order conditional estimation (FOCE) method with interaction. PsN (version≥5.0.0) was used to execute NONMEM runs as well as for running visual predictive checks (VPCs), sampling importance resampling (SIR) and automated step-wise covariate modelling (SCM). The R software (version≥4.0.2) was used for exploratory analysis, creation of goodness of fit (GOF) plots, and summary statistics. Campsis (version 1.1.0), an R-based software application provided by Calvagone, was used for simulations.
The NONMEM version 7.5.0 was used with the GNU Fortran (GCC) compiler version 9.3.0, running on a Ubuntu 20.04 LTS system with Linux kernel version 5.4.0-72-generic on Intel Xeon E5-2640 v3 @ 8 HT 2.60 GHz, using VMWare ESXi 7.0u1 platform with fault tolerance, hosting virtual management server with 8 vCPU; and calculation nodes with Intel Xeon E5-2680 v4 14HT 2.40 GHz. Fortran compiler optimisation options were:-static-w-O3-ffast-math. All software was used in a validated environment.
In the mixed effects modelling the population parameters are categorised as follows: Fixed effects parameters, θ (theta), are used for the structural population parameters (e.g. Ka, CL, V, F, etc.), as well as certain parameters relating the population parameters to the physiological or demographic variables (covariates) included in the analysis. Random effects parameters, n (eta), are used for describing inter-individual variability (IIV) in the fixed effects parameters, and can also be used to describe inter-occasion variability (IOV) if appropriately included in the model. Eta parameters are assumed to be normally distributed random variables with mean zero and variance-covariance matrix Q (omega). The square root of the diagonal elements of this matrix provides the IIV estimates. Off-diagonal elements (if not fixed to zero) are commonly translated to correlations. Random effects parameters, ¿ (epsilon), are used to describe the residual variability. Residual variability includes intra-individual error, analytical error, potential error due to model missspecification and any other error not considered by structural elements such as θ and η. Residual variability parameters are assumed to be normally distributed random variables with mean zero and standard deviation σ (sigma).
Different structural models combined with different residual error models and, if needed, with different estimation methods were applied to identify the most appropriate mixed-effects model. […]

In series [8] the test system is protein to creatinine ratio. Description: Reduction in protein to creatinine ratio as a biomarker of kidney function. The following applies: 120 mg BID. It is filed as in vivo, human.
Setting [9] is: study 101, healthy volunteers, oral.
The mark [10] stands for this setting: study 202, FSGS patients receiving irbesartan.
The mark [11] stands for this setting: study 203, DKD patients receiving irbesartan.

Structures are written as SMILES. Like-named read-outs stand apart in the source and are kept apart here.

T1 sequence (P41597 whole entry partner, one chain of several): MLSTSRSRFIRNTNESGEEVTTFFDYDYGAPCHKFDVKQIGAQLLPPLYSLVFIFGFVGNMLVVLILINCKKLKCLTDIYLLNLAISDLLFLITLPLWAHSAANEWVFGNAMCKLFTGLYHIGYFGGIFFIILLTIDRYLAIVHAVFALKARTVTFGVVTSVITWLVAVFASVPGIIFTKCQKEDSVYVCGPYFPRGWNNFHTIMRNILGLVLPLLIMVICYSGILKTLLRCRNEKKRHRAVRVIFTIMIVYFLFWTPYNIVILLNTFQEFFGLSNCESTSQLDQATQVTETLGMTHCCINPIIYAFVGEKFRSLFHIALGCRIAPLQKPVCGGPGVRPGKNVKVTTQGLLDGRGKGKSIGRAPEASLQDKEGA

Turning to `CCOc1nc2cccc(C(=O)O)c2n1Cc1ccc(-c2ccccc2-c2nc(=O)o[nH]2)cc1` [Azilsartan], the “Potency (pIC50), AT1R-CCR2” value in series [1] (HEK293FT, 100 nM AngII + 100 nM MCP-1, 30 min ARB pre-incubation) was 9.97. Also, the “Potency (pIC50/pKb), AT1R only” value on AT1R [2] is given as 9.9. On AT1R [3], the “Fold decrease in potency, AT1R only” value is 1.00 fold.
As for `CCOc1nc2cccc(C(=O)O)c2n1Cc1ccc(-c2ccccc2-c2nnn[nH]2)cc1` [Candesartan], the “Potency (pIC50/pKb), AT1R only” value at AT1R [2] is 10. Further, the “Fold decrease in potency, AT1R only” value at AT1R [3] is recorded as 1.00 fold.
With `CCCCc1nc(Cl)c(C(=O)O)n1Cc1ccc(-c2ccccc2-c2nn[nH]n2)cc1` [EXP3174], the “potency in blocking angiotensin II-induced cellular responses” value in series [4] is “significantly more potent than losartan”.
Regarding `CCCCc1ncc(/C=C(\Cc2cccs2)C(=O)O)n1Cc1ccc(C(=O)O)cc1` [Eprosartan], the “Potency (pIC50/pKb), AT1R only” value on AT1R [2] was 8.8. Also, on AT1R [3], the “Fold decrease in potency, AT1R only” value is reported as 1.00 fold.
For the compound `CCCCc1nc(C)c(CC(=S)N(C)C)c(=O)n1Cc1ccc(-c2ccccc2-c2nnn[nH]2)cc1` [Fimasartan], the “Potency (pIC50/pKb), AT1R only” value at AT1R [2] is recorded as 8.82^$. For the same compound, the “Fold decrease in potency, AT1R only” value on AT1R [3] is recorded as 1.00 fold.
On to `CCCCC1=NC2(CCCC2)C(=O)N1Cc1ccc(-c2ccccc2S(=O)(=O)Nc2noc(C)c2C)c(COCC)c1` [Sparsentan, 2-[4-[(2-butyl-4-oxo-1,3-diazaspiro[4.4]non-1-en-3-yl)methyl]-2-(ethoxymethyl)phenyl]-N-(4,5-dimethyl-1,2-oxazol-3-yl)benzenesulfonamide], for which the Kb in series [1] (read-out: Affinity (pKb), AT1R-CCR2 (converted)) was 1.74 nM. The “Potency (pIC50/pKb), AT1R only” value on AT1R [2] was 9.1. Further, the “Fold decrease in potency, AT1R only” value at AT1R [3] was determined as 1.00 fold.
With `O=C(O)C[CH2][Ge](=[O])[O][Ge](=[O])[CH2]CC(=O)O` [propagermanium, 3-[(2-carboxyethyl-oxogermyl)oxy-oxogermyl] propanoic acid], in series [5], the “inhibition of in vitro chemotactic migration of monocytes by MCP-1” value is given as “specifically inhibit in vitro chemotactic migration of monocytes by MCP-1”.
Take `O=C(O)C[CH2][Ge](=[O])[O][Ge](=[O])[CH2]CC(=O)O` [repagermanium, 3-[(2-carboxyethyl-oxogermyl)oxy-oxogermyl]propanoic acid]: in series [6] (140 mg twice per day), the therapeutic effect result is recorded as “reduced therapeutic effect”. For the same compound, the “efficacy vs repagermanium dose” value in series [6] (different doses, FIG. 1) is “‘bell-shaped’ inhibitory curve”. The “blood concentration before the next dose” value in series [7] (80 mg twice per day) is reported as “falling too low before the next dose to provide a therapeutic effect”. Besides, the “steady state AUC, range” value in series [7] (120 mg BID) was in the range of 5000 to 25000 ng·h/mL. In addition, the AUC(0-t) at 24 h stood at 9800 ng·h/mL in series [7] (human, plasma, study 101, healthy volunteers); 16700 ng·h/mL in series [7] (human, plasma, study 202, FSGS patients); 11800 ng·h/mL in series [7] (human, plasma, study 203, DKD patients). The CL/F in series [7] (human, plasma, study 101, healthy volunteers, oral) is 670 mL/min; in series [7] (human, plasma, study 202, FSGS patients receiving irbesartan, 120 mg bid oral), 300 mL/min; in series [7] (human, plasma, study 203, DKD patients receiving irbesartan, 120 mg bid oral), 345 mL/min. Besides, the AUC in series [7] (human, plasma, 120 mg BID, read-out: steady state AUC) was around 15000 ng·h/mL. Further, the “Clearance, range” value in series [7] (setting [9]) lay in the range of 24.6 to 60.1 L/h; in series [7] (study 202, FSGS patients receiving irbesartan, 120 mg bid oral), 4.6 to 36.5 L/h; in series [7] (study 203, DKD patients receiving irbesartan, 120 mg bid oral) it was 5.8 to 47.6 L/h. The “F (rel. bioavailability), median” value in series [7] (setting [9]) amounted to 1.6; in series [7] (setting [10]) it was 1.1; in series [7] (setting [11]), 1.0. Further, the “F (rel. bioavailability), range” value in series [7] (setting [9]) is reported as 0.7-3.7; in series [7] (setting [10]), 0.9-1.7; in series [7] (setting [11]) it was 0.4-1.9. The “AUC24h, steady state, range” value in series [7] (study 101, healthy volunteers) was 5500 to 24900 ng·h/mL; in series [7] (study 202, FSGS patients) it was 7800 to 45200 ng·h/mL; in series [7] (study 203, DKD patients), 3900 to 47700 ng·h/mL. Further, the “protein to creatinine ratio” value in series [8] is given as “reduction in protein to creatinine ratio”.

By AUC is commonly meant concentration integrated over time.
